Source: ChEMBL document CHEMBL1145312, “Structure-activity relationships of triazolopyridine oxazole p38 inhibitors: identification of candidates for clinical development” (Bioorg Med Chem Lett, 2006)
≈ marks a conversion by molar mass, not a printed value.

Key:
Monocyte = experiment: Inhibition of LPS-induced TNFalpha production in human monocytes; format: functional, cell-based
[1] = biological target: Dual specificity mitogen-activated protein kinase kinase 1 (Homo sapiens, UniProt Q02750); experiment: Inhibition of MKK1
Chain of Dual specificity mitogen-activated protein kinase kinase 1 (Q02750 whole entry): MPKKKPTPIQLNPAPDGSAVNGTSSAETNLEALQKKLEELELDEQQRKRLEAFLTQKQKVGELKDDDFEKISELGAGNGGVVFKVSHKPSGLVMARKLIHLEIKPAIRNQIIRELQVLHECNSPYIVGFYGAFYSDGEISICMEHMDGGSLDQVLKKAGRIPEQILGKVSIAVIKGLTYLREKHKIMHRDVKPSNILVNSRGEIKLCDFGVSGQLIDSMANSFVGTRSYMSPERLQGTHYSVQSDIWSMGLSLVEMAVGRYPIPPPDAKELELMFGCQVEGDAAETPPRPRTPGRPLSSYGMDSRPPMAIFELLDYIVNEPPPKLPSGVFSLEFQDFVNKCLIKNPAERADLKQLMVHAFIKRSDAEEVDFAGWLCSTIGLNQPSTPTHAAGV

[2] = biological target: MAP kinase-activated protein kinase 2 (Homo sapiens, UniProt P49137); experiment: Inhibition of MAPKAP-K2
Chain of MAP kinase-activated protein kinase 2 (P49137 whole entry): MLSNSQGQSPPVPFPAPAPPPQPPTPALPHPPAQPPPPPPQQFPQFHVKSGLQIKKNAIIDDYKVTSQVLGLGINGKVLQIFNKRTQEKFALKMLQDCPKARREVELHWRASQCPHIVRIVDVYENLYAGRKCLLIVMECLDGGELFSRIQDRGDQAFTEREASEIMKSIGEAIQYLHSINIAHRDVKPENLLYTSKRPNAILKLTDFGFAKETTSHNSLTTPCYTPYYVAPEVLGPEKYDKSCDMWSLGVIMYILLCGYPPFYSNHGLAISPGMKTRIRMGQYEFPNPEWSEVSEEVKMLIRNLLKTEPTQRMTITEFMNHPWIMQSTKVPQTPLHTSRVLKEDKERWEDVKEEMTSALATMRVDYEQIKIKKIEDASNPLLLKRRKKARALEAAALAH

[3] = biological target: Ribosomal protein S6 kinase alpha-5 (Homo sapiens, UniProt O75582); experiment: Inhibition of MSK1
Chain of Ribosomal protein S6 kinase alpha-5 (O75582 whole entry): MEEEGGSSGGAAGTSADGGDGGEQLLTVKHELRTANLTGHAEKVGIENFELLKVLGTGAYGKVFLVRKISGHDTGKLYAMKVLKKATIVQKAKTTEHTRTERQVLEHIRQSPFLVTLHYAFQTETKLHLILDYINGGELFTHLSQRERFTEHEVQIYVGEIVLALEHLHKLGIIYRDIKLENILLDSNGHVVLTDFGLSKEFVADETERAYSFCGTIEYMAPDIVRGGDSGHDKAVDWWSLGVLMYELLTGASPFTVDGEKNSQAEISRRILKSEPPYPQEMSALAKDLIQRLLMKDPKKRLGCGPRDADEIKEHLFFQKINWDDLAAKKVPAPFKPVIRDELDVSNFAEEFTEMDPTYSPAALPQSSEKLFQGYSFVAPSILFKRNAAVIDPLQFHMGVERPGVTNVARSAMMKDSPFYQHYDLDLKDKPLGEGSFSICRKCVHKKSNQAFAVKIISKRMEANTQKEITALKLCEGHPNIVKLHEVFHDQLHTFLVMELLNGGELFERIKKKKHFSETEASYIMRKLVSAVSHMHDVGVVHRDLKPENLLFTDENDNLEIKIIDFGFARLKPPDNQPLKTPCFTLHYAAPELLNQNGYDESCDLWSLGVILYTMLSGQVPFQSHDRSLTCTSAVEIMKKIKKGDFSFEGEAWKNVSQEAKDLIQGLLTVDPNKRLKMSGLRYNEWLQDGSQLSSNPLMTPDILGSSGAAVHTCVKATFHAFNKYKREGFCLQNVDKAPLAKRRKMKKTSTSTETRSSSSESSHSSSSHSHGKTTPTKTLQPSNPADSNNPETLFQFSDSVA

[4] = Inhibition of PKC
[5] = biological target: T1, 3-phosphoinositide-dependent protein kinase 1 (Homo sapiens, UniProt O15530); experiment: Inhibition of PDK1
T1 sequence (O15530 whole entry): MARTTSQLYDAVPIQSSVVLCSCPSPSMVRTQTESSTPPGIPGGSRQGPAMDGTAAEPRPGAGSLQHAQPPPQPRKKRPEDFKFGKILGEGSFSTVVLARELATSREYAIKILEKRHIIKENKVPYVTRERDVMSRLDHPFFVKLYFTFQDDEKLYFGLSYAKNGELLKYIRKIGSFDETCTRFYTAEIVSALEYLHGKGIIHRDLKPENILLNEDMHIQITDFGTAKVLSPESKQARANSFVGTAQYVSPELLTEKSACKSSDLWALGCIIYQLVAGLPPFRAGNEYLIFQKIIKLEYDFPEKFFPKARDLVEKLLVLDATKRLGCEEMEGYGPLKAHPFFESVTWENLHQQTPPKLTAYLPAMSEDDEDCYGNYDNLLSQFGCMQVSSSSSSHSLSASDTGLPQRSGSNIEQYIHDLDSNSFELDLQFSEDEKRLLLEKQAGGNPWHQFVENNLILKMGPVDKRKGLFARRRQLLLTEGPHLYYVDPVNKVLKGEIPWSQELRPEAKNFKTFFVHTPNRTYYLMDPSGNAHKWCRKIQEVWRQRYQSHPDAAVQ

[6] = biological target: RAC-alpha serine/threonine-protein kinase (Homo sapiens, UniProt P31749); experiment: Inhibition of PKBalpha
Chain of RAC-alpha serine/threonine-protein kinase (P31749 whole entry): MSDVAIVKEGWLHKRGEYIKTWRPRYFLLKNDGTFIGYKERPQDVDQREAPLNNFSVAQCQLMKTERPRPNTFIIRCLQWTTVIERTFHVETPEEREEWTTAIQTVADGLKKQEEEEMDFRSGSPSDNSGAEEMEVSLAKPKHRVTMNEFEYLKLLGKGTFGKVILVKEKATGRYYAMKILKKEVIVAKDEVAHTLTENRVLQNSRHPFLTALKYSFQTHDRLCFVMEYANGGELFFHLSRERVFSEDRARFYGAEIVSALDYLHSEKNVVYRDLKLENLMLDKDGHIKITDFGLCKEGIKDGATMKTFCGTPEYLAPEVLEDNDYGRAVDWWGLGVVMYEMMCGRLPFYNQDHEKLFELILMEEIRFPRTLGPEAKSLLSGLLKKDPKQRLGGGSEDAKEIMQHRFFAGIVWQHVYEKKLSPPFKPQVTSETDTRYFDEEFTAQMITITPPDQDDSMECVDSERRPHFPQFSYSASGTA

[7] = biological target: Ribosomal protein S6 kinase (P70S6K) (Homo sapiens, UniProt P23443+Q9UBS0); experiment: Inhibition of P70S6K; format: protein-complex assay
Chain of Ribosomal protein S6 kinase (P70S6K) (Q9UBS0 whole entry): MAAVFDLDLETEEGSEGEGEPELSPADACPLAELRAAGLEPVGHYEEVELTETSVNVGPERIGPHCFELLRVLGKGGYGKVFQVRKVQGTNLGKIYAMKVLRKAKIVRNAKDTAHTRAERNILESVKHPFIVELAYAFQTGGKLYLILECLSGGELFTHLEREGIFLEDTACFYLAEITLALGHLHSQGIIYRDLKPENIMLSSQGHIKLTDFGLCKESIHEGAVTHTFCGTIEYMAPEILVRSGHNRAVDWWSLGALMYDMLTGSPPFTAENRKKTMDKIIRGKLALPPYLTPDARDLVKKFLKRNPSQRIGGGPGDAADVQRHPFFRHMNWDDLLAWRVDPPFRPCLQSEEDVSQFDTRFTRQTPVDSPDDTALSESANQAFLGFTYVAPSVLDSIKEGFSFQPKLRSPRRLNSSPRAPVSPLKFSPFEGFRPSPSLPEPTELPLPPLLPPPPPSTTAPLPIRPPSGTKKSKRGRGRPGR
Chain of Ribosomal protein S6 kinase (P70S6K) (P23443 whole entry): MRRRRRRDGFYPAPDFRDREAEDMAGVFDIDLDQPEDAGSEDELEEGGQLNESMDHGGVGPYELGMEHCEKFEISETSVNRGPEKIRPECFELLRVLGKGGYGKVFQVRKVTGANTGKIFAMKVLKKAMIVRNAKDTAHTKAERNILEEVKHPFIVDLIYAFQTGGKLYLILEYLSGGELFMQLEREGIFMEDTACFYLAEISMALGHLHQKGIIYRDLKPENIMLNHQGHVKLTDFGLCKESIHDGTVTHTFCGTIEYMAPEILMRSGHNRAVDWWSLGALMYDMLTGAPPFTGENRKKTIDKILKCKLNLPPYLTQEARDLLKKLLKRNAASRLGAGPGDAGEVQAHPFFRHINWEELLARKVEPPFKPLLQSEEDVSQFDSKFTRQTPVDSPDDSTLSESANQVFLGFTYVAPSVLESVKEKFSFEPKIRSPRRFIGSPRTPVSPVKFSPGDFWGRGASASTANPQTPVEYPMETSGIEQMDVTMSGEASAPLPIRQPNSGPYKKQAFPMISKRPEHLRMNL

Casein kinase II = Casein kinase II (Homo sapiens, UniProt P19784+P67870+P68400); experiment: Inhibition of CK2; format: protein-complex assay
Chain of Casein kinase II (P67870 whole entry): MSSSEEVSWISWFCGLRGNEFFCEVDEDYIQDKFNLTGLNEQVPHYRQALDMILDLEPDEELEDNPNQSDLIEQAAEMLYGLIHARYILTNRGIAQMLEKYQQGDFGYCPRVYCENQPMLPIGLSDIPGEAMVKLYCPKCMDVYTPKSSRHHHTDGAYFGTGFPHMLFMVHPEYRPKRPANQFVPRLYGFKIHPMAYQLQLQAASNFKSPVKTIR
Chain of Casein kinase II (P68400 whole entry): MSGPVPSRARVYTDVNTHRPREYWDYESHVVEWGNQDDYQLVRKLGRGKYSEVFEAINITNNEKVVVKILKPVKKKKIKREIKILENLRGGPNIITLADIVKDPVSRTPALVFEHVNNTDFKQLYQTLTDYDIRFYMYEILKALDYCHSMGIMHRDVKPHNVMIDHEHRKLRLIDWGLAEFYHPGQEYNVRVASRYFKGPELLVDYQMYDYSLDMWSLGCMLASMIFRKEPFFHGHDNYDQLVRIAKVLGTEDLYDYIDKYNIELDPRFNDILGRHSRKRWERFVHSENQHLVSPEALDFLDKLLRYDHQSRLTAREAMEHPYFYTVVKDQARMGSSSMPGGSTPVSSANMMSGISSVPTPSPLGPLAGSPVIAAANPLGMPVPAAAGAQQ
Chain of Casein kinase II (P19784 whole entry): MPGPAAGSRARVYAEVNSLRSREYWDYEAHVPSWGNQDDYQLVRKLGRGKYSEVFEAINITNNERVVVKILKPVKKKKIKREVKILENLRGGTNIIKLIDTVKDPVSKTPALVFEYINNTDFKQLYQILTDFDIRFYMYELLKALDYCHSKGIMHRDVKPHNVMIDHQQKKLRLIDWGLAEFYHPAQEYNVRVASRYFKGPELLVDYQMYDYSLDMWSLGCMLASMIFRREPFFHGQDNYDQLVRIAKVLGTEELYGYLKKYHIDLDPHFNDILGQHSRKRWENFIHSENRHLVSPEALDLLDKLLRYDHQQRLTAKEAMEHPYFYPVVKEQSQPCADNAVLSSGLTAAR

[8] = biological target: Tyrosine-protein kinase CSK (Homo sapiens, UniProt P41240); experiment: Inhibition of CSK
Chain of Tyrosine-protein kinase CSK (P41240 whole entry): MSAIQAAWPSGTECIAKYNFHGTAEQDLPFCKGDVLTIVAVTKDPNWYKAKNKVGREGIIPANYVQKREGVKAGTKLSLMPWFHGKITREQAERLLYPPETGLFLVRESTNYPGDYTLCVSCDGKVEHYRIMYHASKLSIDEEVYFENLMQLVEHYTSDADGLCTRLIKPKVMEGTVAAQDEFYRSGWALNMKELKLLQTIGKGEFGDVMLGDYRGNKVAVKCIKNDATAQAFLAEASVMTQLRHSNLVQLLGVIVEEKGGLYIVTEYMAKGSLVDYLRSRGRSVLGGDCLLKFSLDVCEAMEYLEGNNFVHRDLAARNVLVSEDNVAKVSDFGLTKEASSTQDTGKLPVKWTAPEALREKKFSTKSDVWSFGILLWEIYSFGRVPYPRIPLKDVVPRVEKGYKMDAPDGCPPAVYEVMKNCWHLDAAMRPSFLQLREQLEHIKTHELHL

[9] = Inhibition of PI3K
[10] = biological target: Dual specificity tyrosine-phosphorylation-regulated kinase 1A (Homo sapiens, UniProt Q13627); experiment: Inhibition of DYRK1a
[11] = Inhibition of phosphorylase kinase
[12] = Solubility in PBS buffer at ph 6.5; format: physicochemical
[13] = Volume of distribution in rat; format: ADME, organism-based; settings: in vivo, read-out: Vdss
[14] = Half life in rat; format: ADME, organism-based; settings: in vivo
[15] = Bioavailability in rat; format: ADME, organism-based; settings: in vivo
[16] = Plasma clearance in monkey; format: ADME, organism-based, Macaca mulatta; settings: rhesus monkey
[17] = Volume of distribution in monkey; format: ADME, organism-based, Macaca mulatta; settings: rhesus monkey, in vivo; read-out: Vdss
[18] = Half life in monkey; format: ADME, organism-based, Macaca mulatta; settings: rhesus monkey, in vivo
[19] = Bioavailability in monkey; format: ADME, organism-based, Macaca mulatta; settings: rhesus monkey, in vivo
hERG (KCNH2) = hERG (KCNH2) (Homo sapiens, UniProt Q12809); experiment: Inhibition of hERG channel current in HEK293 cells at 3 uM; format: toxicity, cell-based; settings: HEK293 cells that express hERG
Rattus norvegicus = species: Rattus norvegicus; experiment: Inhibition of LPS-induced TNFalpha release in rat; format: functional
[20] = Plasma clearance in rat; format: ADME, organism-based
[21] = Permeability from apical to basolateral side of Caco-2 cell membrane; format: ADME, cell-based; settings: human
[22] = Permeability from basolateral to apical side of Caco-2 cell membrane; format: ADME, cell-based; settings: human
[23] = Hepatocyte microsomal extraction ratio in human; settings: hepatic microsomes

Structure (SMILES) | IC50 (Monocyte) [µM] | IC50 [1] [µM] | IC50 [2] [µM] | IC50 [3] [µM] | IC50 [4] [µM] | IC50 [5] [µM] | IC50 [6] [µM] | IC50 [7] [µM] | IC50 [8] [µM] | IC50 [9] [µM] | IC50 [10] [µM] | IC50 [11] [µM] | also measured
CC(C)c1nnc2ccc(-c3ocnc3-c3ccccc3)cn12 | 0.0714 | > 10 | > 10 | > 10 | > 10 | > 10 | > 10 | > 10 | > 10 | > 10 | > 10 | > 10 | IC50 (Casein kinase II): > 10 µM
CC(C)(C)c1nnc2ccc(-c3ocnc3-c3cc(F)c(F)cc3F)cn12 | 0.0083 | > 10 | > 10 | > 10 | > 10 | > 10 | > 10 | > 10 | > 10 | > 10 | > 10 | > 10 | solubility [12]: 41 µg/mL (≈ 110 µM); Vd [13]: 0.6 L/kg; half-life [14]: 2.6 h; bioavailability [15]: 54%; clearance [16]: 3.4 mL/min/kg; Vd [17]: 1.2 L/kg; half-life [18]: 5.2 h; bioavailability [19]: 66%; inhibition at 3 µM (hERG (KCNH2)): 5.9%; ED50 (Rattus norvegicus): 0.1 mg/kg; clearance [20]: 3 mL/min/kg
CCNc1nnc2ccc(-c3ocnc3-c3ccc(F)cc3)cn12 | 0.052 | > 10 | > 10 | > 10 | > 10 | > 10 | > 10 | > 10 | > 10 | > 10 | > 10 | > 10 | 
CC(C)c1nnc2ccc(-c3c[nH]nc3-c3cc(F)ccc3F)cn12 | 0.0141 | > 10 | > 10 | > 10 | > 10 | > 10 | > 10 | > 10 | > 10 | > 10 | > 10 | > 10 | Papp A→B [21]: 6 ×10⁻⁶ cm/s; Papp B→A [22]: 18 ×10⁻⁶ cm/s
CC(C)(C)c1nnc2ccc(-c3ocnc3-c3ccc(F)cc3F)cn12 | 0.0126 | > 10 | > 10 | > 10 | > 10 | > 10 | > 10 | > 10 | > 10 | > 10 | > 10 | > 10 | hepatic extraction ratio [23]: < 0.3
